In patent US12318361B2, “Methods for treating cardiovascular diseases” (Olatec Therapeutics LLC, priority 2017, dated 2025):

Tests used:
caspase-1 = experiment: Western blot for caspase-1 (p45 and p10) in J774A.1 cells after LPS/ATP stimulation; format: cell-based, murine
Description: J774A.1 murine macrophages cells were stimulated with 1 μg/ml lipopolysaccharide (LPS) for 4 hours and either nigericin (NIG, 10 μM) or ATP (5 mM) was added for 1 hour. OLT1177™ was added to the cells either 30 minutes following LPS stimulation or at the same time as ATP.
A subunit of activated caspase-1 (p10) was reduced in J774A.1 cells in the presence of dapansutrile (OLT).

[1] = tested on: male CD-1 mice, experimental AMI; experiment: Experimental mouse AMI model (30 min ischemia, 24 h reperfusion), dose response and delayed dosing, Example 9; format: in vivo; conditions: for Infarct size, Change (%) relative to saline group / Infarct size, mean: 24 h; for AWDT, mean / AWST, mean / LVEDD, mean / LVEF, mean / LVESD, mean / LVFS, mean / PWDT, mean / PWST, mean: echo at 24 h
Description: Objectives: To determine the efficacy of, (1) a single dose of OLT1177™ (6, 60 and 600 mg/kg) administered at the time of reperfusion (Part A) and, (2) a single dose of 60 mg/kg OLT1177™ administered 60, 120 or 180 minutes after reperfusion in an experimental mouse AMI model.
Methodology: Male CD-1 mice underwent transient surgical ligation of the left coronary artery for 30 minutes followed by reperfusion for 24 hours. A single dose of OLT1177™ (6, 60, or 600 mg/kg) or matching vehicle was administered intraperitoneally (IP) at time of reperfusion (N=5-9/group, Study Part A) or OLT1177™ (60 mg/kg) after a 60-, 120- or 180-minute delay (N=4-7/group, Study Part B). Echocardiography was performed to measure left ventricular (LV) fractional shortening (FS). Infarct size was measured at pathology by triphenyl-tetrazolium-chloride (TTC) and phthalo blue staining and expressed as a percentage of the myocardium at risk.
For the 60-mg/kg dose, OLT1177™ (13 mg/vial) was diluted in 0.65 ml of 0.9% of normal saline solution to reach a concentration of 20 mg/ml. For the 6 mg/kg dose, the 20 mg/ml dose was diluted 10 times (0.1 ml OLT1177™ […]+0.9 ml 0.9% normal saline) to reach a final concentration of 2 mg/ml. For the 600 mg/kg dose, each vial of OLT1177™ (13 mg/vial) was diluted with 0.1 ml of saline, to reach a final concentration of 130 mg/ml. The content of multiple vials was combined. Each respective tube was subjected to a vortex and heating at 37° C. until complete dissolution of the drug substance.
Male mice were dosed with OLT1177™ by the intraperitoneal route at dose levels of 6, 60, or 600 mg/kg (each approximately 33 g mouse received 100 μl of the dosing solution; 150 μl for the higher dose) after the reperfusion was confirmed (Study Part A). In Part B, 60 mg/kg OLT1177™ was injected (100 μl of the dosing solution per mouse) with a delay of 60, 120 or 180 minutes from the time of reperfusion.
Adult out-bred male CD1 mice (8-10 weeks of age) were supplied by Envigo (Indianapolis, IN). A single operator performed all surgeries. Experimental AMI was induced by transient coronary artery ligation for 30 minutes to induce ischemia of the anterior wall and the apex (visible as pallor) followed by reperfusion, and leading to an infarct involving approximately 15% of the left ventricle. Mice were deeply sedated with sodium pentobarbital (70 mg/kg), intubated using a 23 G catheter and placed in the right lateral decubitus. The mice were shaved and the skin was cleaned with povidone solution and isopropyl alcohol. The mice were then connected to a ventilator and a left thoracotomy was performed followed by pericardiectomy and ligation of the proximal left coronary artery. A 1-mm diameter polyethylene tube was inserted inside the ligature knot, secured and left in place to obstruct the coronary flow for 30 minutes. At the end of the ischemic time, the tube was removed and the coronary flow re-establishment was observed. At this time, OLT1177™ at a dose of 6, 60 or 600 mg/kg, or the normal saline (0.9% NaCl) used as vehicle (0.1 ml of total volume) was injected into the peritoneal cavity after the reperfusion was confirmed (Part A). After closure of the thoracic access, the mice were left to recover for 24 hours. Pain management was achieved using buprenorphine (Buprenorphine SR™ Lab, 0.5 mg/kg) injected subcutaneously. For Study Part B, groups of mice were injected with 60 mg/kg of OLT1177™ after 60, 120 or 180 minutes from the moment of reperfusion.
Before sacrifice (24 hours after reperfusion), the mice underwent transthoracic echocardiography under mild anesthesia with sodium pentobarbital (50 mg/kg). Echocardiography was performed with the Vevo770 Imaging System (VisualSonics Inc, Toronto, Ontario, Canada) and a 30 MHz probe. The heart was visualized in B-mode from the parasternal short axis and apical views. The left ventricular (LV) end-diastolic diameter (LVEDD) and LV end-systolic diameters (LVESD) at M-Mode were measured. […]

[2] = 6 mg/kg IP at time of reperfusion (Group 2)
[3] = 60 mg/kg IP administered at 60 minutes (Group 5)
[4] = 60 mg/kg IP administered at 120 minutes (Group 6)
[5] = 60 mg/kg IP at time of reperfusion (Group 3)
[6] = 60 mg/kg IP, Group 7 (N = 4), head prints Administered at 120 Minutes
[7] = 60 mg/kg IP, treatment delay of 60 or 120 minutes, p<0.01
[8] = 600 mg/kg IP at time of reperfusion (Group 4)
[9] = all doses (6, 60, 600 mg/kg) at reperfusion, 24 h after reperfusion, p<0.05

Question: What does the source list for `CS(=O)(=O)CCC#N` [OLT1177™, 3-methanesulfonyl-propionitrile]?
Answer: subunit of activated caspase-1 (p10), Western blot (caspase-1): reduced; Infarct size, Change (%) relative to saline group [1, 2]: −36%; AWDT, mean [1, 2]: 0.79 mm; AWST, mean [1, 2]: 1.10 mm; LVEDD, mean [1, 2]: 3.71 mm; LVEF, mean [1, 2]: 61.4%; LVESD, mean [1, 2]: 2.52 mm; LVFS, mean [1, 2]: 32.2%; PWDT, mean [1, 2]: 0.86 mm; PWST, mean [1, 2]: 1.12 mm; Infarct size, mean ([1]; 6 mg/kg IP single dose at time of reperfusion (Group 2)): 9.9%; infarct size (in words) ([1]; 60 mg/kg IP administered 120 or 180 minutes after reperfusion): not significantly altered; AWDT, mean [1, 3]: 0.85 mm; AWST, mean [1, 3]: 1.18 mm; LVEDD, mean [1, 3]: 4.00 mm; LVEF, mean [1, 3]: 65.3%; LVESD, mean [1, 3]: 2.59 mm; LVFS, mean [1, 3]: 35.5%; PWDT, mean [1, 3]: 0.89 mm; PWST, mean [1, 3]: 1.33 mm; Infarct size, mean ([1]; 60 mg/kg IP administered at 60 minutes after reperfusion (Group 5)): 4.4%; AWDT, mean [1, 4]: 0.83 mm; AWST, mean [1, 4]: 1.20 mm; LVEDD, mean [1, 4]: 4.07 mm; LVEF, mean [1, 4]: 63.6%; LVESD, mean [1, 4]: 2.68 mm; LVFS, mean [1, 4]: 34.1%; PWDT, mean [1, 4]: 0.87 mm; PWST, mean [1, 4]: 1.26 mm; Infarct size, mean ([1]; 60 mg/kg IP administered at 120 minutes after reperfusion (Group 6)): 11.1%; Infarct size, mean ([1]; 60 mg/kg IP administered at 180 minutes after reperfusion (Group 7)): 15.4%; reducing infarct size and preserving LV function, compared with treatment given with no delay ([1]; 60 mg/kg IP after a 60 minutes delay after reperfusion): equally effective; Infarct size, Change (%) relative to saline group [1, 5]: −67%; AWDT, mean [1, 5]: 0.82 mm; AWST, mean [1, 5]: 1.25 mm; LVEDD, mean [1, 5]: 4.25 mm; LVEF, mean [1, 5]: 59.3%; LVESD, mean [1, 5]: 2.93 mm; LVFS, mean [1, 5]: 31.0%; PWDT, mean [1, 5]: 0.86 mm; PWST, mean [1, 5]: 1.24 mm; Infarct size, mean ([1]; 60 mg/kg IP single dose at time of reperfusion (Group 3)): 5.1%; AWDT, mean [1, 6]: 0.95 mm; AWST, mean [1, 6]: 1.22 mm; LVEDD, mean [1, 6]: 3.88 mm; LVEF, mean [1, 6]: 51.5%; LVESD, mean [1, 6]: 2.87 mm; LVFS, mean [1, 6]: 26.0%; PWDT, mean [1, 6]: 0.94 mm; PWST, mean [1, 6]: 1.31 mm; LV ejection fraction in comparison to vehicle-treated mice (in words) [1, 7]: significantly improved; LV fractional shortening in comparison to vehicle-treated mice (in words) [1, 7]: significantly improved; drop in fractional shortening (in words) ([1]; 60 mg/kg IP, treatment delay of 180 minutes): failed to prevent the drop; Infarct size, Change (%) relative to saline group [1, 8]: −61%; AWDT, mean [1, 8]: 0.77 mm; AWST, mean [1, 8]: 1.06 mm; LVEDD, mean [1, 8]: 3.76 mm; LVEF, mean [1, 8]: 61.6%; LVESD, mean [1, 8]: 2.54 mm; LVFS, mean [1, 8]: 33.0%; PWDT, mean [1, 8]: 0.83 mm; PWST, mean [1, 8]: 1.14 mm; Infarct size, mean ([1]; 600 mg/kg IP single dose at time of reperfusion (Group 4)): 6.0%; infarct size vs vehicle (in words) ([1]; 6, 60 and 600 mg/kg single IP injection at time of reperfusion, p<0.001): significant reduction; LV ejection fraction relative to vehicle control (in words) [1, 9]: significantly higher; LV fractional shortening relative to vehicle control (in words) [1, 9]: significantly higher; decrease in mean infarct size compared to the vehicle control ([1]; high dose 600 mg/kg IP at time of reperfusion): more than 60%; decrease in infarct size compared to the vehicle control ([1]; low dose 6 mg/kg IP at time of reperfusion): 36%; decrease in mean infarct size compared to the vehicle control ([1]; mid dose 60 mg/kg IP at time of reperfusion): more than 60%
